Data reported in ChEMBL document CHEMBL4602647, “Protective effects of 10,11-dihydro-5H-dibenzo[b,f]azepine hydroxamates on vascular cognitive impairment” (Eur J Med Chem, 2020).
Calls of active or inactive are those of the source. No cut-off for these calls is given here.

Tests used:
Histone deacetylase 2 = Histone deacetylase 2 (Homo sapiens, UniProt Q92769); test: Inhibition of recombinant human C-terminal GST-tagged HDAC2 (1 to 488 residues) expressed in baculovirus infected sf21 cells using RHK-K(Ac)-AMC as substrate after 60 mins by fluorimetry assay
Histone deacetylase 8 = biological target: T1, Histone deacetylase 8 (Homo sapiens, UniProt Q9BY41); test: Inhibition of recombinant C-terminal His-tagged and N-terminal Streptavidin2-tagged human HDAC8 (1 to 377 residues) expressed in baculovirus infected insect cells using RHK-K(Ac)-AMC as substrate after 60 mins by fluorescence assay
T1 sequence (Q9BY41 whole entry): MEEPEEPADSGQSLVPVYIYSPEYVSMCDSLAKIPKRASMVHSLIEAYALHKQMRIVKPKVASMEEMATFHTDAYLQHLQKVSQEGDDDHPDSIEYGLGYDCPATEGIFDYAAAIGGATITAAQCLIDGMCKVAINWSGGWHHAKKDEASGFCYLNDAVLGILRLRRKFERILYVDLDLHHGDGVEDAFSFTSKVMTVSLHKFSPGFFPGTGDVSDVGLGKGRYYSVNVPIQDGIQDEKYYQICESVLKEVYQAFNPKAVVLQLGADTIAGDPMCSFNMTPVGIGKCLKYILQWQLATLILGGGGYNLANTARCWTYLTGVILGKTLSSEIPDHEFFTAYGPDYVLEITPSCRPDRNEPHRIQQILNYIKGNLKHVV

[1] = biological target: T2, Protein deacetylase HDAC6 (Homo sapiens, UniProt Q9UBN7); test: Inhibition of recombinant human N-terminal GST-tagged HDAC6 (1 to 1215 residues) expressed in baculovirus infected insect cells using RHK-K(Ac)-AMC as substrate after 90 mins by fluorimetry analysis
T2 sequence (Q9UBN7 whole entry): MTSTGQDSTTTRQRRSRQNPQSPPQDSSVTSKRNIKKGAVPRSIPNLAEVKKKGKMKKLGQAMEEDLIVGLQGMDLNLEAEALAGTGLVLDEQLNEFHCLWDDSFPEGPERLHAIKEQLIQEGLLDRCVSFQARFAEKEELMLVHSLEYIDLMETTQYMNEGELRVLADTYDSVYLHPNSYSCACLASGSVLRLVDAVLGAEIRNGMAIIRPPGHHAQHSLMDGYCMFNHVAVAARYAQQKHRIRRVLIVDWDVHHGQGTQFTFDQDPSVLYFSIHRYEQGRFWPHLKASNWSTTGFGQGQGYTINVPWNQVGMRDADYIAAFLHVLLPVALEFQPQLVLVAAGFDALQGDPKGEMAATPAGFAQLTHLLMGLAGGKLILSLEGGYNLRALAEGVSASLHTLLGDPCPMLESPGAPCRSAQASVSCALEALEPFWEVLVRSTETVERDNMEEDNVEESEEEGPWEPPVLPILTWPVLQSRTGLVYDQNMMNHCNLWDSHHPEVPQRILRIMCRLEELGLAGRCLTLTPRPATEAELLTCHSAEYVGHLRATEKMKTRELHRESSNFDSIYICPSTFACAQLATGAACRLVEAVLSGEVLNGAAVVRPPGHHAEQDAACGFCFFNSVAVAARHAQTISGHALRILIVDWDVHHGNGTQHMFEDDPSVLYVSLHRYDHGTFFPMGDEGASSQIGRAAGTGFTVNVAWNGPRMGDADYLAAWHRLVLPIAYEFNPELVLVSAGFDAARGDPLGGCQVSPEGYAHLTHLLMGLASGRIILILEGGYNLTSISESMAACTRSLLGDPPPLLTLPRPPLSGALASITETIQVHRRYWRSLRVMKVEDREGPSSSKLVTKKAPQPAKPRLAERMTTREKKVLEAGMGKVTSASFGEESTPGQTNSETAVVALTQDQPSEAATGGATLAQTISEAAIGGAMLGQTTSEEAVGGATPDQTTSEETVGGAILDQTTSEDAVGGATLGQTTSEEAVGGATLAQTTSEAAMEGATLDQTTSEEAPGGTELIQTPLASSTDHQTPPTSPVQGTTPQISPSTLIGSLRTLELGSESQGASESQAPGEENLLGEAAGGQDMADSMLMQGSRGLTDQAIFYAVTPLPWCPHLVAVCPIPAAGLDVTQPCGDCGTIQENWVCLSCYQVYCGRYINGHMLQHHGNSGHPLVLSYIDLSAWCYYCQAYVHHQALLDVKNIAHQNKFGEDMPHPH

Histone deacetylase 1 = Histone deacetylase 1 (Homo sapiens, UniProt Q13547); test: Inhibition of recombinant full length human C-terminal FLAG/His-tagged HDAC1 (1 to 482 residues) expressed in baculovirus infected Sf21 cells using RHK-K(Ac)-AMC as substrate measured after 60 mins by fluorimetric assay
SH-SY5Y [2] = test: Neuroprotective activity against OGD-induced hypoxic injury in human SH-SY5Y cells assessed as LDH release at 5 uM incubated under oxygen/glucose deprivation-induced hypoxic medium by LDH assay (reference value: 27.47 +/- 3.23 %); assay type: functional
SH-SY5Y [3] = test: Neuroprotective activity against OGD-induced hypoxic injury in human SH-SY5Y cells assessed as LDH release at 10 uM incubated under oxygen/glucose deprivation-induced hypoxic medium by LDH assay (reference value: 27.47 +/- 3.23 %); assay type: functional
SH-SY5Y [4] = test: Neuroprotective activity against OGD-induced hypoxic injury in human SH-SY5Y cells assessed as LDH release at 1 nM to 10 uM incubated under oxygen/glucose deprivation-induced hypoxic medium by LDH assay; assay type: functional, cell-based
Mus musculus [5] = test: (§1) Anti-vascular cognitive impairment activity against bilateral common carotid artery occlusion-induced vascular dementia C57BL/6J mouse model assessed as improvement in short-term non-spatial working memory by measuring increase in novel object recognition at 25 mg/kg, ip administered post surgery measured after 1 month by novel object recognition test; assay type: functional, organism-based
Mus musculus [6] = test: as §1, with “3 months” for “1 month”; assay type: functional, organism-based
Mus musculus [7] = test: (§2) Anti-vascular cognitive impairment activity against bilateral common carotid artery occlusion-induced vascular dementia C57BL/6J mouse model assessed as reversal of hippocampal atrophy by measuring increase in ratio of size of hippocampus to lateral ventricle at 25 mg/kg, ip administered post surgery measured after 3 months by 7T-MRI analysis; assay type: functional, organism-based
Mus musculus [8] = test: (§3) Anti-vascular cognitive impairment activity against bilateral common carotid artery occlusion-induced vascular dementia C57BL/6J mouse model assessed as ratio of cerebral blood flow in right parietal area at 25 mg/kg, ip administered post surgery measured after 3 months (reference value: 0.761 +/- 0.037); assay type: functional
Mus musculus [9] = test: as §3, with “left” for “right”, “months(reference” for “months (reference”, “0.792” for “0.761”, “0.029)” for “0.037)”; assay type: functional
Mus musculus [10] = test: Upregulation of acetylated H3K14 protein expression in hippocampus of bilateral common carotid artery occlusion-induced vascular dementia C57BL/6J mouse model at 25 mg/kg, ip measured after 3 months by Western blot analysis; assay type: functional, organism-based
Mus musculus [11] = test: as §2, with “hippocampal volume” for “ratio of size of hippocampus to lateral ventricle”; assay type: functional, organism-based
SH-SY5Y [12] = test: Neuroprotective activity against OGD-induced hypoxic injury in human SH-SY5Y cells assessed as LDH release at 1 uM incubated under oxygen/glucose deprivation-induced hypoxic medium by LDH assay (reference value: 27.47 +/- 3.23 %); assay type: functional

Chain of Histone deacetylase 1 (Q13547 whole entry, the tested form may be a part): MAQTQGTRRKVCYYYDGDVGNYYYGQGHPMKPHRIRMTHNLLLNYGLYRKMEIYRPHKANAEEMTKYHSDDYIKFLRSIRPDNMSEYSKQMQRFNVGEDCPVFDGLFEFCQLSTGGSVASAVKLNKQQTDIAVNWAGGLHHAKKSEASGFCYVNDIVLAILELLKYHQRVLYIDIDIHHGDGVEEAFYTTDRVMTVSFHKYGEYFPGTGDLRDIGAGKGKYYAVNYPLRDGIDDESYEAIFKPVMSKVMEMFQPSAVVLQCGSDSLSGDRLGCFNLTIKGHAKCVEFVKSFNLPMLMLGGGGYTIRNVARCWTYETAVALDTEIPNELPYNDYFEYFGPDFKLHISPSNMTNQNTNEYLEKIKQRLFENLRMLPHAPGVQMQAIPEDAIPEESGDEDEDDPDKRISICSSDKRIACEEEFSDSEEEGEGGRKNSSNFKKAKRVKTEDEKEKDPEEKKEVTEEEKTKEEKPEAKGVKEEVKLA
Chain of Histone deacetylase 2 (Q92769 whole entry, the tested form may be a part): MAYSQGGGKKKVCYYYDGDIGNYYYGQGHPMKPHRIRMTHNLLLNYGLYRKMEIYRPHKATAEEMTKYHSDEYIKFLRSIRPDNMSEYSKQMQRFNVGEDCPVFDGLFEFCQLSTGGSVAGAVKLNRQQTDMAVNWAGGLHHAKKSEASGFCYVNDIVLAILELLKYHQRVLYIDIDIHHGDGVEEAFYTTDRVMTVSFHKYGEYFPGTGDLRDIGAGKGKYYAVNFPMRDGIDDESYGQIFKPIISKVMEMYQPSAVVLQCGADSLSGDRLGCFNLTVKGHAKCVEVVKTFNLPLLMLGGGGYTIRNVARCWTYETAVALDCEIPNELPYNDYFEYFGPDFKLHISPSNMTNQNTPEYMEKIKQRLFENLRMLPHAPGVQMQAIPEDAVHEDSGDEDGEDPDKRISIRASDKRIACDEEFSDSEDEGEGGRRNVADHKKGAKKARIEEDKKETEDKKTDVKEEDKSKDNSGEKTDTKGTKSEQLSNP

| Compound | IC50 (Histone deacetylase 2; read-out: IC50) [µM] | IC50 (Histone deacetylase 8) [nM] | IC50 [1] [nM] | IC50 (Histone deacetylase 1; read-out: IC50) [µM] | IC50 (Histone deacetylase 2; sf21) | Activity (SH-SY5Y [2]) [%] | Activity (SH-SY5Y [3]) [%] | Activity (SH-SY5Y [4]) | also measured |
| --- | --- | --- | --- | --- | --- | --- | --- | --- | --- |
| O=C(CCCCC(=O)NCCCN1c2ccccc2CCc2ccc(Cl)cc21)NO | 9.62 | 3090 | 2070 | 6.8 | – | – | – | inactive | – |
| O=C(CCCCCCCC(=O)NCCCN1c2ccccc2CCc2ccc(Cl)cc21)NO | 2.74 | 1070 | 144 | 3.4 | – | 100.96 | 76.55 | – | – |
| CN(C)CCCN1c2ccccc2CCc2ccc(Cl)cc21 | – | – | – | – | – | – | – | inactive | – |
| O=C(/C=C/c1cccc(S(=O)(=O)NCCCN2c3ccccc3CCc3ccc(Cl)cc32)c1)NO | 8.48 | 2160 | 821 | 6.05 | – | – | – | – | – |
| O=C(CCC(=O)NCCCN1c2ccccc2CCc2ccc(Cl)cc21)NO | – | > 10000 | > 10000 | – | Not Active | – | – | inactive | IC50 (Histone deacetylase 1; sf21): Not Active |
| O=C(CCCCCC(=O)NCCCN1c2ccccc2CCc2ccc(Cl)cc21)NO | 3.96 | 345 | 61.6 | 2.14 | – | 86.54 | 92.47 | – | – |
| O=C(CCCCCCC(=O)Nc1ccccc1)NO [VORINOSTAT] | – | – | – | – | – | – | – | – | Activity (Mus musculus [5]): Active; Activity (Mus musculus [6]): inactive; Activity (Mus musculus [7]): inactive; Ratio (Mus musculus [8]): 0.83; Ratio (Mus musculus [9]): 0.878; Activity (Mus musculus [10]): inactive; Activity (Mus musculus [11]): inactive |

Continued, in another order:

| IC50 (Histone deacetylase 2; read-out: IC50) [µM] | IC50 (Histone deacetylase 8) [nM] | IC50 [1] [nM] | IC50 (Histone deacetylase 1; read-out: IC50) [µM] | IC50 (Histone deacetylase 2; sf21) | Compound | Activity (SH-SY5Y [2]) [%] | Activity (SH-SY5Y [3]) [%] | Activity (SH-SY5Y [4]) | also measured |
| --- | --- | --- | --- | --- | --- | --- | --- | --- | --- |
| 3.03 | 864 | 142 | 5.45 | – | O=C(CCCCCCCCC(=O)NCCCN1c2ccccc2CCc2ccc(Cl)cc21)NO | 84.35 | 65.87 | – | – |
| – | 1510 | 2610 | – | Not Active | O=C(NO)c1ccc(CNCCCN2c3ccccc3CCc3ccc(Cl)cc32)cc1 | – | – | inactive | IC50 (Histone deacetylase 1; sf21): Not Active |
| 8.62 | 1780 | 448 | 7.28 | – | O=C(NO)c1ccc(C(=O)NCCCN2c3ccccc3CCc3ccc(Cl)cc32)cc1 | – | 30.74 | – | – |
| – | 2330 | 658 | – | Not Active | O=C(CCCCCCC(=O)NCCCN1c2ccccc2CCc2ccc(Cl)cc21)NO | 74.3 | 97.21 | – | IC50 (Histone deacetylase 1; sf21): Not Active; Activity (SH-SY5Y [12]): 43.16% |
| – | 874 | 762 | > 10 | Not Active | O=C(/C=C/c1ccc(S(=O)(=O)NCCCN2c3ccccc3CCc3ccc(Cl)cc32)cc1)NO | – | – | – | – |
| 5.96 | 1850 | 1440 | 5.1 | – | O=C(CCCC(=O)NCCCN1c2ccccc2CCc2ccc(Cl)cc21)NO | – | – | inactive | – |
